Results published in ChEMBL document CHEMBL2073895, “Charged amino acids in the transmembrane domains are involved in the determination of the substrate specificity of rat Mrp2” (Mol Pharmacol, 2001).

B1: ATP-binding cassette sub-family C member 2 (Rattus norvegicus) (protein)
chain: MDKFCNSTFWDLSLLESPEADLPLCFEQTVLVWIPLGFLWLLAPWQLYSVYRSRTKRSSITKFYLAKQVFVVFLLILAAIDLSLALTEDTGQATVPPVRYTNPILYLCTWLLVLAVQHSRQWCVRKNSWFLSLFWILSVLCGVFQFQTLIRALLKDSKSNMAYSYLFFVSYGFQIVLLILTAFSGPSDSTQTPSVTASFLSSITFSWYDRTVLKGYKHPLTLEDVWDIDEGFKTRSVTSKFEAAMTKDLQKARQAFQRRLQKSQRKPEATLHGLNKKQSQSQDVLVLEEAKKKSEKTTKDYPKSWLIKSLFKTFHVVILKSFILKLIHDLLVFLNPQLLKLLIGFVKSSNSYVWFGYICAILMFAVTLIQSFCLQSYFQHCFVLGMCVRTTVMSSIYKKALTLSNLARKQYTIGETVNLMSVDSQKLMDATNYMQLVWSSVIQITLSIFFLWRELGPSILAGVGVMVLLIPVNGVLATKIRNIQVQNMKNKDKRLKIMNEILSGIKILKYFAWEPSFQEQVQGIRKKELKNLLRFGQLQSLLIFILQITPILVSVVTFSVYVLVDSANVLNAEKAFTSITLFNILRFPLSMLPMVTSSILQASVSVDRLERYLGGDDLDTSAIRRVSNFDKAVKFSEASFTWDPDLEATIQDVNLDIKPGQLVAVVGTVGSGKSSLVSAMLGEMENVHGHITIQGSTAYVPQQSWIQNGTIKDNILFGSEYNEKKYQQVLKACALLPDLEILPGGDMAEIGEKGINLSGGQKQRVSLARAAYQDADIYILDDPLSAVDAHVGKHIFNKVVGPNGLLAGKTRIFVTHGIHFLPQVDEIVVLGKGTILEKGSYRDLLDKKGVFARNWKTFMKHSGPEGEATVNNDSEAEDDDDGLIPTMEEIPEDAASLAMRRENSLRRTLSRSSRSSSRRGKSLKNSLKIKNVNVLKEKEKEVEGQKLIKKEFVETGKVKFSIYLKYLQAVGWWSILFIILFYGLNNVAFIGSNLWLSAWTSDSDNLNGTNNSSSHRDMRIGVFGALGLAQGICLLISTLWSIYACRNASKALHGQLLTNILRAPMRFFDTTPTGRIVNRFSGDISTVDDLLPQTLRSWMMCFFGIAGTLVMICMATPVFAIIIIPLSILYISVQVFYVATSRQLRRLDSVTKSPIYSHFSETVTGLPIIRAFEHQQRFLAWNEKQIDINQKCVFSWITSNRWLAIRLELVGNLVVFCSALLLVIYRKTLTGDVVGFVLSNALNITQTLNWLVRMTSEAETNIVAVERISEYINVENEAPWVTDKRPPADWPRHGEIQFNNYQVRYRPELDLVLKGITCNIKSGEKVGVVGRTGAGKSSLTNCLFRILESAGGQIIIDGIDVASIGLHDLRERLTIIPQDPILFSGSLRMNLDPFNKYSDEEVWRALELAHLRSFVSGLQLGLLSEVTEGGDNLSIGQRQLLCLGRAVLRKSKILVLDEATAAVDLETDSLIQTTIRKEFSQCTVITIAHRLHTIMDSDKIMVLDNGKIVEYGSPEELLSNRGSFYLMAKEAGIENVNHTEL

Legend:
Type in all cases: functional, cell membranes, Membrane vesicle
[1] = target: T1, ATP-binding cassette sub-family C member 2 (Rattus norvegicus, UniProt Q63120); assay: TP_TRANSPORTER: inhibition of E217betaG uptake (E217betaG: 0.055 uM) in membrane vesicles from Mrp2-expressing Sf9 cells
[2] = target: T1, ATP-binding cassette sub-family C member 2; assay: TP_TRANSPORTER: inhibition of DNP-SG uptake (DNP-SG: 0.05 uM) in membrane vesicles from Mrp2-expressing Sf9 cells
[3] = substrate: C[C@]12CC[C@@H]3c4ccc(O)cc4CC[C@H]3[C@@H]1CC[C@@H]2O[C@@H]1O[C@H](C(=O)O)[C@@H](O)[C@H](O)[C@H]1O; assay: TP_TRANSPORTER: uptake in membrane vesicles from Mrp2-expressing Sf9 cells

Molecule | IC50 [1] | also measured
CCCCC/C=C\C\C=C/C=C/C=C/[C@@H](SC[C@H](N)C(=O)O)[C@@H](O)CCCC(=O)O [LEUKOTRIEN E4] | 9.83 µM | –
C[C@]12CC[C@@H]3c4ccc(O)cc4CC[C@H]3[C@@H]1CC[C@@H]2O[C@@H]1O[C@H](C(=O)O)[C@@H](O)[C@H](O)[C@H]1O [ESTRADIOL 17B GLUCURONIDE] | – | IC50 [2]: 13.3 µM
N[C@@H](CCC(=O)N[C@H](CSc1ccc([N+](=O)[O-])cc1[N+](=O)[O-])C(=O)NCC(=O)O)C(=O)O | 19.3 µM | –
CCCCC/C=C\C\C=C/C=C/C=C/[C@@H](SC[C@H](NC(=O)CC[C@@H](N)C(=O)O)C(=O)O)[C@@H](O)CCCC(=O)O [LEUKOTRIEN F4] | 10 µM | –
CCCCC/C=C\C\C=C/C=C/C=C/[C@@H](SC[C@@H](NC(=O)CC[C@H](N)C(=O)O)C(=O)NCC(=O)O)[C@@H](O)CCCC(=O)O [LEUKOTRIEN C4] | 0.65 µM | –
CN(C)C(=O)CCSC(SCCC(=O)O)c1cccc(/C=C/c2ccc3ccc(Cl)cc3n2)c1 (stereo not drawn) [MK-571] | 2.62 µM | –
CCCCC/C=C\C\C=C/C=C/C=C/[C@@H](SC[C@H](N)C(=O)NCC(=O)O)[C@@H](O)CCCC(=O)O [LEUKOTRIENE D4] | 5.48 µM | –
B1 | – | Km [3]: 3.91 µM
